Laboratory results reported in ChEMBL document CHEMBL4689842, “EUbOPEN Chemogenomics Library wave 1” (2021).

Legend:
Type in all cases: toxicity, cell-based
[1] = system: U2OS; test: Incucyte cell viability with U2OS; conditions: human, 10 µM, compound concentration 10 uM
[2] = system: HEK-293T; test: Incucyte cell viability with HEK293T; conditions: human, 10 µM, compound concentration 10 uM
[3] = system: Fibroblast; test: Incucyte cell viability with human fibroblast; conditions: 10 µM, compound concentration 10 uM
[4] = 0 h, replicate number 1, timepoint 0 hours
[5] = 0 h, replicate number 2, timepoint 0 hours
[6] = 6 h, replicate number 1, timepoint 6 hours
[7] = 12 h, replicate number 1, timepoint 12 hours
[8] = 18 h, replicate number 1, timepoint 18 hours
[9] = 24 h, replicate number 1, timepoint 24 hours
[10] = 24 h, replicate number 2, timepoint 24 hours
[11] = 12 h, replicate number 2, timepoint 12 hours
[12] = 6 h, replicate number 2, timepoint 6 hours
[13] = 18 h, replicate number 2, timepoint 18 hours
Note: filed as whole numbers so only -1 and 0 and 1 occur.

| Compound | Growth Rate [1, 4] | Growth Rate [1, 5] | Growth Rate [1, 6] | Growth Rate [1, 7] | Growth Rate [1, 8] | Growth Rate [1, 9] | Growth Rate [2, 4] | Growth Rate [2, 6] | Growth Rate [2, 7] | Growth Rate [2, 8] | Growth Rate [2, 9] | Growth Rate [3, 4] | Growth Rate [3, 6] | Growth Rate [3, 7] | Growth Rate [3, 11] | Growth Rate [3, 8] | Growth Rate [3, 9] | Growth Rate [1, 12] | Growth Rate [1, 13] | Growth Rate [2, 5] | other results |
| --- | --- | --- | --- | --- | --- | --- | --- | --- | --- | --- | --- | --- | --- | --- | --- | --- | --- | --- | --- | --- | --- |
| CO[C@@H](C)c1c(Nc2ccc([C@@H](N(C)C(=O)C3CCS(=O)(=O)CC3)C(F)(F)F)cc2)cnc2cc(Cl)nn12 [NVS-MALT1-C] | 0 | 1 | 0 | 1 | 0 | 1 | 1 | 0 | 0 | 0 | 0 | 0 | 0 | 1 | 0 | 1 | 1 |  |  |  | Growth Rate [1, 10]: 0 |
| OCCn1cc(-c2cnc3nnn(Cc4ccc5ncccc5c4)c3n2)cn1 [PF-04217903] |  | 0 | 1 | 1 | 1 | 1 | 1 | 0 | 1 | 1 | 1 | 0 | 1 |  | 0 | 1 | 1 | 0 | 0 |  | Growth Rate [1, 11]: 0; Growth Rate [1, 10]: 0; Growth Rate [3, 12]: 0; Growth Rate [3, 13]: 0 |
| CCC[C@H](Oc1cc(C)c(-n2cc(C(F)(F)F)cn2)c(C)c1)c1ccc(C(=O)NCCC(=O)O)cc1 [PF-06291874] |  |  |  | 1 | 0 | 1 | 1 | 0 | 0 | 0 | 0 | 0 | 1 | 0 |  | 0 | 1 | 0 | 1 | 0 |  |
| CNC[C@H](O)c1cccc(O)c1 [PHENYLEPHRINE] |  | 0 |  | 1 | 1 | 1 | 0 | 0 | 0 | 0 | 1 | 1 |  | 1 |  |  |  | 0 |  |  | Growth Rate [2, 10]: 0; Growth Rate [3, 5]: 0; Growth Rate [3, 13]: 1 |
| N#Cc1c[nH]c2c(C(=O)N3CCN(CCc4ccc(F)cc4)CC3)cccc12 [PRUVANSERIN] | 1 |  |  | 1 | 0 | 0 |  | 0 | 0 | 0 | 0 | 0 | 0 | 0 |  | 0 | 0 | 0 | 1 | 0 | Growth Rate [1, 11]: 0 |
| CN(C)C(=O)c1cc2cnc(Nc3ccc(N4CCNCC4)cn3)nc2n1C1CCCC1 [RIBOCICLIB] | 0 |  | 0 | 0 | 0 | 0 | 0 | 1 |  | 1 | 1 | 0 |  |  | 0 |  | 1 | 1 | 1 | 1 | Growth Rate [1, 11]: 1; Growth Rate [1, 10]: 1; Growth Rate [2, 12]: 0; Growth Rate [2, 11]: 0; Growth Rate [2, 13]: 0; Growth Rate [2, 10]: 0; Growth Rate [3, 12]: 0; Growth Rate [3, 13]: 1 |
| CC[C@H](CO)Nc1nc(NCc2ccccc2)c2ncn(C(C)C)c2n1 [SELICICLIB] | 1 | 0 | 0 | 0 | 0 | 0 | 0 |  |  | 1 | 0 |  | 0 | 0 |  | 0 | 0 |  |  | 1 | Growth Rate [1, 11]: 1; Growth Rate [2, 12]: 0; Growth Rate [2, 11]: 0; Growth Rate [3, 5]: 0 |
| O=C1NCN(c2ccccc2)C12CCN(CC1COc3ccccc3O1)CC2 (centres undefined) [SPIROXATRINE] |  | 0 |  | 1 | 1 | 1 | 1 | 0 | 0 | 0 | 0 | 0 | 1 | 1 | 0 | 0 | 1 | 1 |  | 0 | Growth Rate [3, 5]: 1; Growth Rate [3, 12]: 0; Growth Rate [3, 10]: 0 |
| CC1(C)CCC(C)(C)c2cc(NC(=O)c3ccc(C(=O)O)cc3)ccc21 [TAMIBAROTENE] | 0 |  |  | 0 | 0 | 1 | 0 | 1 | 1 | 1 | 1 | 0 | 0 | 0 | 1 | 0 | 1 |  | 1 |  | Growth Rate [1, 11]: 1 |
| CC(C)OC(=O)C1=CN(C(=O)c2ccc(F)c(F)c2)CC(C)(C)c2c1[nH]c1ccccc21 [TUROFEXORATE ISOPROPYL] | 0 |  |  | 0 | 0 | 0 | 0 | 0 | 0 | 0 | 0 | 0 | 0 | 0 |  | 0 | 0 |  | 1 |  | Growth Rate [1, 10]: 1 |
| Cc1ccc2nc(CNCCCOc3ccccc3)cc(O)c2c1 [UCSF924] | 0 |  | 0 | 0 | 0 | 0 | 0 | 0 | 0 | 0 | 0 |  | 0 | 0 |  | 0 | 0 |  |  | 1 | Growth Rate [3, 5]: 1; Growth Rate [3, 12]: 1 |
| CNC(=O)c1ccccc1Nc1cc(Nc2ccc(N3CCOCC3)cc2OC)ncc1C(F)(F)F [VS-4718] | 1 | 0 | 0 | 0 | 0 | 0 |  | 0 | 0 | 0 | 0 | 0 |  |  |  | 1 | 0 |  |  |  | Growth Rate [3, 10]: 1 |
| C=CC(=O)N1CCC([C@@H]2CCNc3c(C(N)=O)c(-c4ccc(Oc5ccccc5)cc4)nn32)CC1 [ZANUBRUTINIB] | 0 |  | 0 | 0 | 0 | 0 | 0 |  | 0 | 0 | 0 | 1 | 0 | 0 |  | 0 | 0 |  |  |  | Growth Rate [3, 5]: 0; Growth Rate [3, 13]: 1; Growth Rate [3, 10]: 1 |
